Measured values taken from patent US11014902B2, “MYC G-quadruplex stabilizing small molecules and their use” (The United States of America, as represented by the …, priority 2015, dated 2021).

Assay: Stability study in culture media (LC/MS)
Format: physicochemical
Settings: RPMI-1640, LC/MS, up to 72 h
From the text: Having established the reversible binding of Compound 1 to quadruplex DNA and selective quadruplex-dependent silencing of c-Myc, one consideration that remained was the presence of a benzylaminophenol functional group in Compound 1. It has previously been reported that compounds containing this functional group can have the propensity to eject amines, form an o-quinone methide, and alkylate proteins (Weinert, et al., J Am Chem Soc 2006, 128, 11940; Herzig, et al., J Org Chem 2006, 71, 4130; McLean, et al., Bioorg Med Chem Lett 2009, 19, 6717). To assess whether Compound 1 was undergoing this reactivity, a small series of analogs was prepared. In FIG. 6C, compounds lacking the phenol or amino group were prepared and evaluated. […] Additionally, the stability of Compound 1 was evaluated (see FIG. 7). […] Additionally, the putative hydrolysis products arising from quinone methide formation were not observed at any time by LC/MS.
Compound 1 (10 μL of 1 mM DMSO solution) was added to 490 μL RPMI-1640 culture media. After 1 min, 25 h, 48 h, and 72 h, 100 μL of this solution was diluted into 100 μL acetonitrile. The mixture was centrifuged at 5500 rpm for 1 min and the supernatant was removed from the pellet. […]
Compound 1 (10 μL of 1 mM DMSO solution) was added to 490 μL RPMI-1640 culture media. […] The mass corresponding to Compound 1 (M+H^+=393) was extracted and the chromatogram evaluated. […]

Q: For `Cc1ccc(NC(=O)c2c(C)oc3ccc(O)c(CN4CCCCCC4)c23)cc1` [Compound 1], which “stability in culture media” value is on record?
A: Its value is “persisted in culture media over a period of 72 h”.
